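How tested: cells in 96-well plates exposed to compound for 48 hours at five concentrations. GI50: concentration for 50% inhibition of growth. The concentration for full growth arrest is given as TGI.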
The compounds below were run on MDA-MB-468 breast (assay: inhibition of tumour cell growth, NCI panel, 48 h).

SMILES | GI50 [nM] | TGI [nM]
Cc1nc(N(C)C)nc(-c2cccc(-c3ccn(CCN(C)C)n3)c2)c1C | 12100 | > 20000
Nc1c(S(=O)(=O)O)cc2c(c1Cl)C(=O)c1ccccc1C2=O | > 100000 | > 100000
O=c1c(-c2nc3ccccc3[nH]2)cc2ccccc2n1Cc1cn(Cc2ccc(F)cc2)nn1 | 93.1 | 2780
COc1cc(/C=C2\CCCC3=C2N=C2SC=NN2C3c2cc(OC)c(OC)c(OC)c2)cc(OC)c1OC (stereo unspecified) | 2330 | 7520
O=C1/C=C/[C@@H](O)[C@@H]2C[C@@H](O)C[C@H]2/C=C/CCCCO1 | 167 | 
Nc1ncnc2c1c(-c1ccc(Oc3ccccc3)cc1)nn2C[C@H]1SSC[C@H]1O | 211 | 627
Clc1ccc2c(NCCCNCc3ccc4c(c3)OCO4)ccnc2c1 | 2040 | 5130
CCOc1ccc(NC2=C(Cl)C(=O)c3nc(C)ccc3C2=O)cc1 | 1490 | 2920
c1ccc(Oc2cnc3ccccc3n2)cc1 | 46400 | > 100000
COc1cc(Nc2nccc(-c3cnn4ncccc34)n2)cc(OC)c1 | 64.3 | 217
CCCCCCCCCCCC(=O)[O][Sn]([CH2]CCC)([CH2]CCC)[CH2]CCC | 28 | 78.7
O=c1c(Br)ccc(Br)cc1Br | 830 | 2620
CN(Cc1cccc(Cl)c1)c1ccc(CO)c(Cl)c1 | 57 | 217
O=C1COCCN1c1ccc(NCc2cn(Cc3ccc(F)cc3)c3ccccc23)cc1 | 23.9 | 78.3
OC(c1cc2c(Cl)cc(Cl)cc2c2cc(C(F)(F)F)ccc12)C1CCCCN1 (stereo unspecified) | 1710 | 3220
C=CCOc1ccc2c(c1)CC[C@@H]1[C@@H]2CC[C@]2(C)C(=O)/C(=N/O)C[C@@H]12 | 2180 | 10600
CCOC(=O)C1=CN(Cc2ccccc2)C2ON=C(c3ccc(Cl)cc3)C2C1 (stereo unspecified) | 15500 | > 100000
O=C(/C=C/c1ccco1)c1cccc(Nc2nc(Nc3ccccc3)nc(Nc3ccccc3)n2)c1 | 2800 | 28900
NC(CSC(c1ccccc1)(c1ccccc1)c1ccc(Br)cc1)C(=O)O (stereo unspecified) | 116 | > 31600
O=C(Nc1ccc(-n2cc(-c3ccncc3)c(-c3ccc(Cl)c(O)c3)n2)cc1)c1ccc(Cl)c(C(F)(F)F)c1 | 1840 | 5680

SMILES | GI50 [nM] | TGI [nM]
COc1ccc(/C=N/C2=C(C#N)C(c3ccccc3)c3ccc4ccccc4c3O2)cc1 (stereo unspecified) | 454 | 
COc1cc(-c2cc(C(=O)N3CCN(C(=O)c4ccccc4NCc4cccs4)CC3)nc3cc(-c4ccccc4)nn23)cc(OC)c1OC | 2710 | 14000
COc1ccc(S(=O)(=O)Nc2c(/C=C\c3cc(OC)c(OC)c(OC)c3)ccc(OC)c2O)cc1OC | 75.5 | 441
COc1cc(-c2nc3cc(Cl)c(Cl)cc3[nH]2)ccc1OCC(=O)N=Nc1c(O)[nH]c2ccccc12 | 250 | 685
Nc1c(C(=O)Nc2cccc3ccccc23)sc2nc3c(cc12)CCCCCC3 | 675 | 11600
Cn1cc(C2=C(c3cn(CCCN/C(N)=N\[N+](=O)[O-])c4ccccc34)C(=O)NC2=O)c2ccccc21 | 2090 | 9740
COc1ccc(-c2nn(C(=O)c3cc(OC)c(OC)c(OC)c3)c3cc(N)ccc23)cc1 | < 14.1 | 190
N[C@@H](Cc1ccc(N(CCCl)CCCl)cc1)C(=O)O | 3840 | 23700
COc1ccc2c(c1)cn1c3ccc(OC)cc3[nH]c(=O)c21 | 63.5 | 1040
C=C(C=O)[C@@H]1CC=C(C=O)CC1 | 2800 | > 100000
Nc1nc(-c2ccccc2Cl)cc(-c2ccc(Cl)cc2Cl)n1 | 2180 | 8660
COC(=O)/C=C/c1cc(OC)c2c(c1)[C@@H](C(=O)OC)[C@H](c1ccc(OC)c(OC)c1)O2 | 1710 | > 100000
CCc1cc(Cc2cc(CC)cc(C(C)(C)C)c2O)c(O)c(C(C)(C)C)c1 | 3540 | 13200
COc1cc(Cl)c(C)cc1NC(=O)c1cc2ccccc2cc1O | 2760 | 9740
COc1cccc(-c2nn(C)c3sc(C(=O)NCCN4CCN(c5ccccc5F)CC4)cc23)c1 | 7810 | > 100000
CCCCCCOc1ccc(/C=N/Nc2cc(C)nc3ccc(Br)cc23)cc1 | 1700 | 3220
N=C(N)c1ccc(-c2ccc(-c3ccccc3)o2)o1 | 1640 | 4190
CC/C(=C(/c1ccc(Cl)cc1)c1ccc(OCCCN(C)C)cc1)c1ccc(OC)cc1 | 1060 | 2260
CCOc1ccc(-n2cc(-c3ccc(N(C)C)cc3)[n+]3c2CCCCC3)cc1 | 42 | 2340

— PubChem BioAssay (NCI)
